Measured values taken from patent publication US20130136722A1, “Methods of Ex Vivo Expansion of Blood Progenitor Cells, and Generation of Composite Grafts” (The Board of Trustees of The University of Illinois, priority 2011, published 2013).

System: LTB4
Experiment: LTB4 in conditioned media by AChE competitive ELISA
Format: cell-based, human
Settings: day 9 of expansion culture; FIG. 4E
Method: The concentration of LTB4 in conditioned media was measured by an acetylcholine esterase competitive enzyme immunoassay following the manufacturer's instructions (Cayman Chemical Co. Ann Arbor, Mich.). Absorbance at 405 nm was read using ELx 800, instrument (Bio Tek Instruments Inc.). Results were calculated using mean values of triplicate wells with standard errors (SE).

SMILES: CCCC(CCC)C(=O)O [VPA, valproic acid]
- level of leukotriene B4 (LTB4) in conditioned medium: increased compared to control
